Measured values published in US7271239B2, “D-isomers of antimicrobial peptide” (The Research Foundation of State University of New York, priority 2004, dated 2007).
In brackets after ≈: the same amount, converted by molar mass. Where two headings read alike, the source gives them in different places. Where a SMILES comes first, the peptide text is derived from it. Where no end group is shown, it is not given here. [ ]: non-standard residue; d: D form.

Columns and labels:
Candida strains = assay type: cell-based
Excerpt: Killing assays in saliva. […] Saliva without peptides was a blank control.
Activity of peptides in saliva against different candida strains. The in vitro candidacidal activities of MUC7 12-mer-L and D, Hsn5 12-mer, and Magainin-II against four Candida strains in clarified saliva are shown in Table 1. The data are presented as percent loss of cell viability compared to non-treated control. The following observations were made. […] In the presence of PIC, the activity values of MUC7 12-mer-L and of Magainin-II rose close to a 100% for all strains, but not that of Hsn5 peptide, which achieved the similar activity only against the C. albicans (ATCC strain). The activities against the other strains were much lower, in particular against both strains of C. glabrata (30-40%). […] This was true especially in saliva without PIC.

S. mutans GS-5 biofilm = assay type: cell-based, Streptococcus mutans
Protocol: FIG. 11. Effect of peptides on the biofilm formation of S. mutans. The bacterial cells (5×10^5 cfu ml^−1) were inoculated in 96-well microtiter plate containing 25% BHIS medium with different concentration of each agent. Culture without agent was used as no treatment control. After incubation at 37° C. for 24 h, absorbance at 595 nm was recorded to assess the cell growth. Biofilm assay was performed by discarding the supernatants, washing with PBS, fixing with methanol, and staining with CV. The absorbance at 570 nm was recorded to assess the amount of biofilm. The activity was expressed as % of control. Data represents mean and SD of two independent tests with duplicates for each. Empty bar: growth, solid bar: biofilm.
The effect of the peptides on S. mutans in biofilm formation was examined by the microdilution method. This method is similar to the MIC assay for planktonic cells. Two-fold serial dilutions of each peptide were prepared in wells of polystyrene microtiter plates (Microtest tissue culture plate, 96 well, Falcon, Becton Dickinson and Company, N.J.) containing 25% BHI medium supplemented with 1% sucrose (BHIS) at a volume of 200 μl per well. The final concentration of the peptide ranged from 0.78 to 100 μM for each peptide. Chlorhexidine (CHX, 0.078 to 10 μg/mL) was used as the positive control, the medium without drug as the non-treated control, and the medium alone as the blank control. The cells suspension of S. mutans GS-5 was prepared as describe in MIC assay and 20 μl aliquot (final concentration of cells 5×10^5 CFU/mL) was inoculated to the wells of polystyrene microtiter plates. After incubation at 37° C. for 20 h, the culture supernatants from each well were decanted and planktonic cells were removed by washing with PBS, pH 7.2. The biofilm was fixed with methanol for 15 min and then air dried at room temperature. The biofilm was then stained with 0.1% (wt/vol) crystal violet (Sigma) for 5 min. and rinsed thoroughly with water until the control wells appeared colorless. Biofilm formation was quantified by the addition of 200 μl of 95% ethanol to each crystal violet-stained well. The plate was rocked at room temperature for 30 min and the absorbance at 595 nm (A595 nm) was determined with a microplate reader (BioRad Model 3550 Microplate Reader). Percentage of inhibition was calculated with the equation: (1−A595 nm of the test/A595nm of non-treated control)×100.

E. coli HB101 = test: microbe, parasite or virus in culture; assay type: cell-based, Escherichia coli; conditions: for MBC / MIC: Escherichia coli, HB101
Excerpt: The bacteria used in this study included Streptococcus mutans ATCC10449, Streptococcus mutans AU 159, Streptococcus mutans GS-5, Streptococcus mutans GS-5 mutant (^gtf BCD), Streptococcus gordonii Challis, Porphyromonas gingivalis W50, Porphyromonas gingivalis 381, A. actinomycetemcomitans NCTC 9710, Pseudomonas aeruginosa ATCC 17648, and Escherichia coli HB101. One quarter strength (25%) of brain heart infusion broth (BHI, DIFCO Laboratories, Detroit, Mich.) was used for the growth of S. mutans, S. gordonii, A. actinomycetemcomitans, Ps. aeruginosa, and E. coli. For growth of P. gingivalis, tryptic soy broth-yeast extract medium (TSBY, DIFCO Laboratories, Detroit, Mich.) supplemented with cysteine hydrochloride (0.05%), menadione (0.02 μg/ml), hemin (5 μg/ml), and potassium nitrate (0.02%) was used. All bacteria were cultured at 37° C.; Ps. aeruginosa and E. coli were grown aerobically, and the other bacteria, anaerobically. To prepare bacterial cell suspension for antibacterial activity assays, each overnight culture was harvested by centrifuge (3783 g, 10 min), washed once with 10 mM sodium phosphate-buffered saline (PBS, pH 7.2), resuspended in PBS and adjusted to a concentration of 1×10^6 cells/mL.
MICs of the peptides were determined by broth microdilution method as previously described (5). Briefly, two-fold serial dilutions of each peptide were prepared with 25% BHI medium at a volume of 200 μl per well in 96-well flat-bottom microtiter plates (Costar, Cambridge, Mass.). The final concentration of the peptides ranged from 0.78 to 100 μM, and chlorhexidine (CHX), used as a positive control, from 20 to 0.16 μM (10 to 0.078 μg/mL). The microtiter plate was inoculated with bacterial cell suspension with final concentration of 5×10^6 CFU/mL for P. gingivalis and 5×10^5 CFU/mL for the other bacterial species. After incubation at 37° C. for 48 h, the absorbance was measured at 595 nm by using a microplate reader (Model 3550, Bio-Rad, Japan) to assess the cell growth. […] The MIC value represents the median of at least three independent experiments. The minimal bactericidal concentration (MBC) was determined as follows. Aliquot (100 μl) of cell suspension was taken from two wells above MIC, centrifuged, and washed three times with PBS. Then each cell suspension was plated on TSBY agar plate, and bacterial cells were enumerated after incubation at 37° C. for 48 h. The MBC was defined as the lowest concentration of the peptide at which more than 99.9% of cells were killed compared to non-treated control.

S. mutans GS-5 = test: Time-kill assay; assay type: cell-based, Streptococcus mutans; conditions: after 4 h incubation, each agent at its MIC
Protocol: FIG. 10. Time-Killing curves for S. mutans. […] Control (▪), MUC7 12-mer-L (Δ), MUC7 12-mer-D (□), MUC7 20-mer (▴), Hsn5 12-mer (×), magainin II (●), chlorhexidine (◯).
For the peptides MUC7 12-mer-L, MUC7 12-mer-D, and MUC7 20-mer, time-kill kinetic studies against S. mutans were performed by the broth macrodilution method. S. mutans GS-5 (1×10^6 CFU/ml) and antibacterial agens (find concentrations of 12.5 μM for each peptide, and 2 μM for CHX; their MICs) were incubated in 25% BHI at 37° C. At the time of 0, 1, 2, 4, 8, and 24 h, samples were taken and viable counts determined as follows: The samples were serially diluted (10^−1 to 10^−4) in sterile 10 mM PBS (pH 7.2) and 50 μl aliquots were plated onto TSBY agar. The plates were incubated anaerobically at 37° C. for 48 h, followed by enumerating the CFU. Killing curves were constructed by plotting the log10 CFU per milliliter versus time over 24 h. All assays were done in duplicate on at least two occasions.

[1] = lowest concentration with 50% or more inhibition of biofilm formation

Compound | activity (killing) (Candida strains) | killing (Candida strains) | MBIC50 (S. mutans GS-5 biofilm; GS-5 biofilm, 24 h) [µM] | MBC (μM) (E. coli HB101) [µM] | MIC (μM) (E. coli HB101) [µM] | MBIC50 (S. mutans GS-5 biofilm) [µg/mL] | MBIC50 (S. mutans GS-5 biofilm; [1]) [µM] | reduction of the viable counts of S. mutans (S. mutans GS-5) [log10] | MBC (μg/ml) (E. coli HB101) [µg/mL] | MIC (μg/ml) (E. coli HB101) [µg/mL] | MBC (E. coli HB101; read-out: MBC) [µM] | MBC (E. coli HB101; read-out: MBC (μg/ml)) [µg/mL] | MIC (E. coli HB101; read-out: MIC) [µM] | MIC (E. coli HB101; read-out: MIC (μg/ml)) [µg/mL]
CC(C)C[C@@H](NC(=O)[C@@H](CS)NC(=O)[C@@H](CCCCN)NC(=O)[C@@H](Cc1ccc(O)cc1)NC(=O)[C@@H](CO)NC(=O)[C@@H](CCCCN)NC(=O)[C@H](N)CCCNC(=N)N)C(=O)N[C@H](Cc1c[nH]cn1)C(=O)N[C@H](CCCCN)C(=O)N[C@H](CCCNC(=N)N)C(=O)N[C@H](CS)C(=O)N[C@H](CCCNC(=N)N)C(=O)O [MUC7 12-mer-D] (H-[dR][dK][dS][dY][dK][dC][dL][dH][dK][dR][dC][dR]-OH; N-terminus and C-terminus assumed) | 47-100% | ~100% | 6.25 | 12.5 (≈ 19.7 µg/mL) | 12.5 (≈ 19.7 µg/mL) | – | – | – | – | – | – | – | – | –
AKRHHGYKRKFH [Hsn5 12-mer] | – | – | 25 | 100.0 | 100.0 | – | – | – | – | – | – | – | – | –
CC(C)C[C@H](NC(=O)[C@H](CS)NC(=O)[C@H](CCCCN)NC(=O)[C@H](Cc1ccc(O)cc1)NC(=O)[C@H](CO)NC(=O)[C@H](CCCCN)NC(=O)[C@@H](N)CCCNC(=N)N)C(=O)N[C@@H](Cc1c[nH]cn1)C(=O)N[C@@H](CCCCN)C(=O)N[C@@H](CCCNC(=N)N)C(=O)N[C@@H](CS)C(=O)N[C@@H](CCCNC(=N)N)C(=O)O [MUC7 12-mer-L] (H-RKSYKCLHKRCR-OH; N-terminus and C-terminus assumed) | – | 44-80% | 12.5 | 25.0 (≈ 39.4 µg/mL) | 25.0 (≈ 39.4 µg/mL) | – | – | – | – | – | – | – | – | –
GIGKFLHSAKKFGKAFVGEIMNS [Magainin-II] | – | – | – | 12.5 | 12.5 | 62 | 25 | 3 | 30.9 | 30.9 | – | – | – | –
[H]/N=C(\N/C(=N/[H])NCCCCCCNC(=N)NC(=N)Nc1ccc(Cl)cc1)Nc1ccc(Cl)cc1 [Chlorhexidine, Chlorhexidine digluconate] | – | – | – | – | – | 0.625 | 1.25 | 1 | – | – | 2.5 | 1.3 | 2.5 | 1.3
